The record followed here is article PMC3678025, “Structure of the Tubulin/FtsZ-Like Protein TubZ from Pseudomonas Bacteriophage ΦKZ” (Journal of Molecular Biology, 2013).

Assay [1] has as its target T1, ΦKZ TubZ-His6 (Pseudomonas phage phiKZ, UniProt Q8SDC3).
T1 construct: gene PHIKZ039; used for crystallography
The experiment in a line: X-ray crystal structure. Type of assay: binding. The conditions noted are these: 2.0 Å monomer (GDP retained through purification, 150 mM Tris-Cl pH 8.0) and 1.7 Å protofilament (crystallised with GTPγS, pH 5.5); GTPase active site.

In assay [2] the target is T2, Wild-type ΦKZ TubZ (Pseudomonas phage phiKZ, UniProt Q8SDC3).
T2 construct: gene PHIKZ039; used for light scattering and electron microscopy
The experiment in a line: […]° light scattering of polymerisation, electron cryo-microscopy. Format: biochemical. The conditions noted are these: 2 μM protein, 20 or 200 μM GTP, 200 mM KCl, 5 mM MgCl2, pH 8.0, 25 °C; induces polymerisation.

T2 sequence (Q8SDC3 whole entry): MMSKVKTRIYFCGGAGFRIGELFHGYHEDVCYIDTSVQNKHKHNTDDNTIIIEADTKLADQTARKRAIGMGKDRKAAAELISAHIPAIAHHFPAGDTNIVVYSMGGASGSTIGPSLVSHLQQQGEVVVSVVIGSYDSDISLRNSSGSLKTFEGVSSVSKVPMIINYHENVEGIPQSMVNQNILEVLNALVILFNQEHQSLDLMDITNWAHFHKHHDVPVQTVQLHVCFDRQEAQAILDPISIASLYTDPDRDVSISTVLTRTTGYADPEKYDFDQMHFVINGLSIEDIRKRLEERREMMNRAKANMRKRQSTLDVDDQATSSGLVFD
T1 sequence (Q8SDC3 whole entry): as above

For `Nc1nc2c(ncn2[C@@H]2O[C@H](COP(=O)(O)OP(=O)(O)O)[C@@H](O)[C@H]2O)c(=O)[nH]1` [GDP], the X-ray crystal structure result in assay [1] is “The GTPase active site within the subunit was occupied by GDP, which was retained”.

Consider `Nc1nc2c(ncn2[C@@H]2O[C@H](COP(=O)(O)OP(=O)(O)OP(=O)(O)O)[C@@H](O)[C@H]2O)c(=O)[nH]1` [GTP], for which, in assay [2], the “90° light scattering of polymerisation, electron cryo-microscopy” value is “ΦKZ TubZ filaments proved extremely dynamic in the presence of GTP”.
